From patent publication EP4817687A2, “NUCLEOTIDE AND NUCLEOSIDE THERAPEUTIC COMPOSITIONS AND USES RELATED THERETO” (Emory University, priority 2013, dated 2015)
Read-outs that look alike come from different tables or passages of the source.

Experiments:
HCV NS5B polymerase = HCV NS5B polymerase (Hepatitis C virus genotype 1b, UniProt Q9WMX2); assay: HCV NS5B pol assay (NS5B RNA-dependent RNA polymerase reaction, filter binding); assay type: biochemical; settings: 1 h; for IC25: read-out: HCV NS5B pol assay (^32P-GTP) IC25; for IC95: read-out: HCV NS5B pol assay (^32P-GTP) IC95
[1] = Cytotoxicity panel (CC50), Huh-7; assay type: cell-based, human; settings: human, huh-7 cells
[2] = Cytotoxicity panel (CC50), HepG2; assay type: cell-based; settings: human, hepg2 cells
[3] = Cytotoxicity panel (CC50), BxPC3; assay type: cell-based; settings: human, bxpc3 cells
[4] = Cytotoxicity panel (CC50), CEM; assay type: cell-based; settings: human, cem cells
[5] = Cytotoxicity panel (CC50), A204; assay type: cell-based; settings: human, a204 cells
[6] = Cytotoxicity panel (CC50), IEC-6; assay type: cell-based; settings: rat, iec-6 cells
[7] = Cytotoxicity panel (CC50), H9c; assay type: cell-based; settings: rat, h9c cells
HepG2 = assay: Cytotoxicity panel (CC50), HepG2; assay type: cell-based; settings: HepG2
Huh-7 = assay: Cytotoxicity panel (CC50), Huh-7; assay type: cell-based, human; settings: Huh-7
BxPC3 = assay: Cytotoxicity panel (CC50), BxPC3; assay type: cell-based; settings: BxPC3
A204 = assay: Cytotoxicity panel (CC50), A204; assay type: cell-based; settings: A204
IEC-6 = assay: Cytotoxicity panel (CC50), IEC-6; assay type: cell-based; settings: IEC-6
H9c = assay: Cytotoxicity panel (CC50), H9c; assay type: cell-based; settings: H9c
[8] = tested on: 2b (GT1b/2b NS5B chimera); assay: microbe, parasite or virus in culture; assay type: cell-based, HCV; settings: Hepatitis C virus, read-out: EC50(µM) 2b (GT1b/2b NS5B chimera)
[9] = tested on: 3a (GT1b/3a NS5B chimera); assay: microbe, parasite or virus in culture; assay type: cell-based, HCV; settings: Hepatitis C virus, read-out: EC50(µM) 3a (GT1b/3a NS5B chimera)
[10] = tested on: 4a (GT1b/4a NS5B chimera); assay: microbe, parasite or virus in culture; assay type: cell-based, HCV; settings: Hepatitis C virus, read-out: EC50(µM) 4a (GT1b/4a NS5B chimera)
GT1b-NS5B-S96T = assay: microbe, parasite or virus in culture; assay type: cell-based, HCV; settings: Hepatitis C virus, read-out: EC50(µM) GT1b-NS5B-S96T
GT1b-NS5B-S282T = assay: microbe, parasite or virus in culture; assay type: cell-based, HCV; settings: Hepatitis C virus, read-out: EC50(µM) GT1b-NS5B-S282T
[11] = Cytotoxicity (CC50) in the GT1b replicon test; assay type: cell-based; settings: gt1b replicon cells
[12] = Anti-Dengue assay, toxicity (XTT) in Vero cells; settings: monkey
Dengue Type 2 = assay: Anti-Dengue Virus Cytoprotection Assay, Dengue Type 2

With `C[C@@]1(F)[C@H](O)[C@@H](COP(=O)(O)OP(=O)(O)OP(=O)(O)O)O[C@H]1n1ccc(=O)[nH]c1=O` as the molecule, how does the IC25 (HCV NS5B polymerase) read?
Its IC25 is 0.52 µM.

And the IC95 (HCV NS5B polymerase)?
Its IC95 is 9.91 µM.

Which IC25 (HCV NS5B polymerase) does the source give for `C[C@@]1(O)[C@H](O)[C@@H](COP(=O)(O)OP(=O)(O)OP(=O)(O)O)O[C@H]1n1ccc(=O)[nH]c1=[Se]` here?
Its IC25 is 6.82 µM.

What about the IC95 (HCV NS5B polymerase) of the same molecule?
Its IC95 is > 100 µM.

Which CC50 [1] does the source give for `O=c1[nH]c(=S)ccn1[C@@H]1O[C@H](CO)[C@@H](O)[C@H]1O` here?
The CC50 was 60 µM.

With `C[C@@]1(O)[C@H](O)[C@@H](CO)O[C@H]1n1ccc(=S)[nH]c1=O` as the molecule, how does the CC50 [1] read?
The CC50 was > 100 µM.

And the CC50 [2]?
Its CC50 is > 400 µM.

What about the CC50 [3] of the same molecule?
Its CC50 is > 100 µM.

And the CC50 [4]?
Its CC50 is > 400 µM.

For `C[C@@]1(F)[C@H](O)[C@@H](CO)O[C@H]1n1ccc(=S)[nH]c1=O`, which CC50 [1] is on record?
The CC50 was > 400 µM.

What about the CC50 [2] of the same molecule?
Its CC50 is > 400 µM.

What about the CC50 [4] of the same molecule?
Its CC50 is > 400 µM.

Which CC50 [1] does the source give for `CC(C)OC(=O)[C@H](C)NP(=O)(OC[C@H]1O[C@@H](n2ccc(=S)[nH]c2=O)[C@](C)(F)[C@@H]1O)Oc1ccccc1` (stereo partly drawn) here?
Its CC50 is > 300 µM.

And the CC50 [3]?
Its CC50 is > 300 µM.

What about the CC50 [5] of the same molecule?
The CC50 was > 200 µM.

And the CC50 [6]?
Its CC50 is > 400 µM.

What about the CC50 [7] of the same molecule?
The CC50 was > 400 µM.

For `CC(C)OC(=O)[C@H](C)NP(=O)(OC[C@H]1O[C@@H](n2ccc(=O)[nH]c2=O)[C@](C)(O)[C@@H]1O)Oc1ccccc1` (stereo partly drawn), which CC50 [6] is on record?
The CC50 was 80 µM.

With `CC(C)OC(=O)[C@H](C)NP(=O)(OC[C@H]1O[C@@H](n2ccc(=O)[nH]c2=[Se])[C@](C)(O)[C@@H]1O)Oc1ccccc1` (stereo partly drawn) as the molecule, how does the CC50 [1] read?
Its CC50 is > 100 µM.

And the CC50 [2]?
The CC50 was > 400 µM.

And the CC50 [3]?
The CC50 was > 400 µM.

And the CC50 [5]?
The CC50 was > 400 µM.

Which CC50 [1] does the source give for `CC(C)OC(=O)[C@H](C)N[P@@](=O)(OC[C@H]1O[C@@H](n2ccc(=O)[nH]c2=O)[C@](C)(F)[C@@H]1O)Oc1ccccc1` here?
Its CC50 is > 400 µM.

And the CC50 [2]?
The CC50 was > 400 µM.

What about the CC50 [4] of the same molecule?
The CC50 was > 400 µM.

Which CC50 [1] does the source give for `C[C@H](NP(=O)(O)OC[C@H]1O[C@@H](n2ccc(=O)[nH]c2=S)[C@](C)(O)[C@@H]1O)C(=O)O` here?
The CC50 was > 400 µM.

What about the CC50 [2] of the same molecule?
The CC50 was > 400 µM.

What about the CC50 [4] of the same molecule?
The CC50 was > 400 µM.

With `C[C@@]1(O)[C@H](O)[C@@H](COP(=O)(O)O)O[C@H]1n1ccc(=O)[nH]c1=S` as the molecule, how does the CC50 [1] read?
The CC50 was > 400 µM.

And the CC50 [2]?
Its CC50 is > 400 µM.

And the CC50 [4]?
The CC50 was > 400 µM.

For `CC(C)OC(=O)[C@H](C)NP(=O)(OC[C@H]1O[C@@H](n2ccc(=S)[nH]c2=O)[C@H](O)[C@@H]1O)Oc1ccccc1` (stereo partly drawn) [drawing 445], which CC50 (HepG2) is on record?
The CC50 was > 400 µM.

With `CC(C)OC(=O)[C@H](C)NP(=O)(OC[C@H]1O[C@@H](n2ccc(=S)[nH]c2=O)[C@](C)(O)[C@@H]1O)Oc1ccccc1` (stereo partly drawn) [drawing 447] as the molecule, how does the CC50 (Huh-7) read?
The CC50 was > 400 µM.

What about the CC50 (BxPC3) of the same molecule?
Its CC50 is > 300 µM.

And the CC50 (A204)?
Its CC50 is > 200 µM.

And the CC50 (IEC-6)?
Its CC50 is > 400 µM.

What about the CC50 (H9c) of the same molecule?
The CC50 was > 200 µM.

For `CC(C)OC(=O)[C@H](C)NP(=O)(OC[C@H]1O[C@@H](n2ccc(=O)[nH]c2=S)[C@H](O)[C@@H]1O)Oc1ccccc1` (stereo partly drawn) [drawing 451], which CC50 (Huh-7) is on record?
Its CC50 is > 400 µM.

Which CC50 [1] does the source give for `C[C@@]1(O)[C@H](O)[C@@H](CO)O[C@H]1n1ccc(=O)[nH]c1=S` [drawing 452] here?
The CC50 was > 100 µM.

And the CC50 [2]?
The CC50 was > 400 µM.

And the CC50 [3]?
Its CC50 is > 100 µM.

And the CC50 [4]?
Its CC50 is > 200 µM.

With `CC(C)OC(=O)[C@H](C)NP(=O)(OC[C@H]1O[C@@H](n2ccc(=O)[nH]c2=S)[C@](C)(O)[C@@H]1O)Oc1ccccc1` (stereo partly drawn) [drawing 453] as the molecule, how does the CC50 [1] read?
Its CC50 is > 400 µM.

What about the CC50 [2] of the same molecule?
The CC50 was > 400 µM.

And the CC50 [3]?
The CC50 was > 300 µM.

And the CC50 [4]?
The CC50 was > 300 µM.

What about the CC50 [5] of the same molecule?
Its CC50 is 98 µM.

What about the CC50 [6] of the same molecule?
Its CC50 is > 200 µM.

What about the CC50 [7] of the same molecule?
The CC50 was > 200 µM.

Which CC50 [1] does the source give for `CC(C)OC(=O)[C@H](C)NP(=O)(OC[C@H]1O[C@@H](n2ccc(=S)[nH]c2=O)[C@](C)(O)[C@@H]1O)Oc1ccccc1` (stereo partly drawn) [drawing 455] here?
Its CC50 is > 400 µM.

And the CC50 [2]?
Its CC50 is > 400 µM.

What about the CC50 [3] of the same molecule?
Its CC50 is > 300 µM.

And the CC50 [4]?
The CC50 was 169 µM.

And the CC50 [5]?
Its CC50 is > 200 µM.

And the CC50 [6]?
Its CC50 is > 400 µM.

And the CC50 [7]?
The CC50 was > 200 µM.

Which CC50 [4] does the source give for `CC(C)OC(=O)[C@H](C)N[P@](=O)(OC[C@H]1O[C@@H](n2ccc(=O)[nH]c2=O)[C@](C)(F)[C@@H]1O)Oc1ccccc1` [drawing 460] here?
Its CC50 is > 400 µM.

For `CC(C)OC(=O)[C@H](C)NP(=O)(OC[C@H]1O[C@@H](n2ccc(=S)[nH]c2=O)[C@H](O)[C@@H]1O)Oc1ccccc1` (stereo partly drawn) [drawing 462], which CC50 (Huh-7) is on record?
Its CC50 is 369 µM.

And the CC50 [2]?
Its CC50 is > 400 µM.

And the CC50 [4]?
Its CC50 is > 400 µM.

For `CC(C)OC(=O)[C@H](C)NP(=O)(OC[C@H]1O[C@@H](n2ccc(=O)[nH]c2=S)[C@H](O)[C@@H]1O)Oc1ccccc1` (stereo partly drawn) [drawing 463], which CC50 [1] is on record?
The CC50 was > 400 µM.

And the CC50 [2]?
The CC50 was > 400 µM.

And the CC50 [4]?
Its CC50 is > 400 µM.

For `CC(C)OC(=O)[C@H](C)NP(=O)(OC[C@H]1O[C@@H](n2ccc(=O)[nH]c2=S)[C@](C)(O)[C@@H]1O)Oc1ccccc1` (stereo partly drawn) [drawing 470], which EC50 [8] is on record?
The EC50 was 0.083 µM.

What about the EC50 [9] of the same molecule?
The EC50 was 0.0882 µM.

And the EC50 [10]?
Its EC50 is 0.0371 µM.

What about the EC50 (GT1b-NS5B-S96T) of the same molecule?
The EC50 was 0.132 µM.

And the EC50 (GT1b-NS5B-S282T)?
The EC50 was > 10 µM.

And the CC50 [11]?
The CC50 was > 10 µM.

Which EC50 [8] does the source give for `CC(C)OC(=O)[C@H](C)N[P@](=O)(OC[C@H]1O[C@@H](n2ccc(=O)[nH]c2=O)[C@](C)(F)[C@@H]1O)Oc1ccccc1` [drawing 472] here?
Its EC50 is 0.0199 µM.

And the EC50 [9]?
Its EC50 is 0.0385 µM.

And the EC50 [10]?
The EC50 was 0.0493 µM.

What about the EC50 (GT1b-NS5B-S96T) of the same molecule?
Its EC50 is 0.0702 µM.

And the EC50 (GT1b-NS5B-S282T)?
The EC50 was 0.287 µM.

What about the CC50 [11] of the same molecule?
The CC50 was > 2 µM.

Which CC50 [12] does the source give for `C[C@@]1(O)[C@H](O)[C@@H](CO)O[C@H]1n1ccc(=O)[nH]c1=S` [drawing 473] here?
Its CC50 is > 100 µM.

What about the EC50 (Dengue Type 2; Huh-7, read-out: Dengue Type 2 Huh-7 Cells (EC50 uM)) of the same molecule?
Its EC50 is > 100 µM.

What about the EC50 (Dengue Type 2; Vero, read-out: Dengue Type 2 Vero Cells (EC50 uM)) of the same molecule?
Its EC50 is 7.79 µM.
